Assay results taken from patent US8147838B2, “Peptide” (priority 2005, dated 2012).
No end group written: not given here.

Molecular target: MHC class I allele A*0101 (A1) (Homo sapiens, UniProt P04439, A114D/A174V/A182V/D101N/D185E/E176A/E190D/L180R/Q94H/R68K/S129P/T187R/V100A/V91M/W191G)
Assay: iScore multi-parametric analysis, A*0101
Type: binding
Conditions: integrates half-life and ED50
Procedure: (§1) Finally, multiparametric analysis is performed on the results from these assays and an iScore is generated. The iScore represents a measure of the overall quality of peptide-MHC binding, enabling candidate peptides to be ranked in order of binding quality and allowing rational prioritisation of peptides for functional cellular follow-up studies.
(§2) As part of the validation of the iTopia system, a panel of overlapping peptides derived from the CMV pp 65 protein were used and their binding properties for the A*0201 allele analysed. A number of T cell epitopes restricted by HLA A*0201 had already been identified (by more conventional methodologies) by other researchers for this protein. In the iTopia study, it was reported that an iScore of: >0.5 represented “good quality binding”; between 0.25 and 0.5 represented “medium quality binding”; and <0.25 represented “poor quality binding”. Six of the 20 peptides which gave a “good” iScore (>0.5) for A*0201, represented previously characterised CMV pp 65 A*0201 epitopes.
(§3) Each MHC class I allele has different binding properties and affinities for peptides which they bind. Therefore, information obtained with HLA A*0201 in which peptides are ranked as good, medium or poor binders using >0.5, 0.25-0.5 and <0.25 as thresholds is not necessarily transferable between alleles. Also, different proteins are likely to have distinct immunogenic profiles and the affinities between peptides and MHC class I molecules will be different between proteins. This may be particularly relevant in the case of self-antigens where immunogenicity is likely to be lower than in foreign proteins.
(§4) Multi-parametric analysis permits the integration of half-life and ED50 parameters in an integrated iScore. This reflects the capability of a peptide to reconstitute with MHC molecules in a stable complex, defining its overall level of binding i.e. the iScore value represents the overall quality of peptide-MHC binding and is used to rank candidate peptides as an indicator of functional relevance. The lead candidate epitopes for each allele are selected for cellular functional analysis to confirm their biological relevance.
(§5) The changes in gradient of the graphs in FIGS. 7 to 10 are indicated by a line which delineates the populations of iScores forming the basis of discrimination for further functional studies.

Sequence	iScore (iTopia), A*0101
HMEGYHYRY [Peptide 198]	0.357
LASNHFLYL [Peptide 109]	0.12

Same assay, conditions: level of binding: >0.5, 0.25-0.5, <0.25

Sequence	iScore, MHC Class I Molecule A*0101
DGRLRLARL [Peptide 7]	0
EHLPSLRQL [Peptide 70]	0
EKMRNRVLL [Peptide 164]	0
ELAALNLSG [Peptide 60]	0
ELILNHIVP [Peptide 89]	0
EVVQGKDRL [Peptide 157]	0
FARRPPLAE [Peptide 56]	0
FEGMVVAAL [Peptide 98, FEGMVVAAL]	0
FLASAVSAQ [Peptide 24]	0
FSSSAPFLA [Peptide 21]	0.023
GAFARRPPL [Peptide 55]	0
GLPHIRVFL [Peptide 142]	0
GLRRLELAS [Peptide 106]	0
GMVVAALLA [Peptide 99]	0
GSRLDEVRA [Peptide 64]	0
GWVSSSSPT [Peptide 14]	0
HFLYLPRDV [Peptide 111]	0
HMADMVTWL [Peptide 151]	0
HMEGYHYRY [Peptide 198]	0.357
LASNHFLYL [Peptide 109]	0.12

Molecular target: MHC class I allele A*0201 (A2) (Homo sapiens, UniProt P04439, D140Y/D185E/D98H/E176V/E277Q/G131W/G231S/I119V/I121R/I166T/I218V/L300P/L318F/N151K/N90K/P208A/P217A/Q86G/Q94H/R138H/R169H/T345S)
Assay: iScore multi-parametric analysis, A*0201
Type: binding
Conditions: level of binding: >0.5, 0.25-0.5, <0.25
Procedure: as §1, §2, §3, §4, §5

Sequence	iScore, MHC Class I Molecule A*0201
DGRLRLARL [Peptide 7]	0
EHLPSLRQL [Peptide 70]	0.046
EKMRNRVLL [Peptide 164]	0.096
ELAALNLSG [Peptide 60]	0.075
ELILNHIVP [Peptide 89]	0.067
EVVQGKDRL [Peptide 157]	0.139
FARRPPLAE [Peptide 56]	0.042
FEGMVVAAL [Peptide 98, FEGMVVAAL]	0.051
FLASAVSAQ [Peptide 24]	0.134
FSSSAPFLA [Peptide 21]	0.116
GAFARRPPL [Peptide 55]	0.222
GLPHIRVFL [Peptide 142]	1.39
GLRRLELAS [Peptide 106]	0.046
GMVVAALLA [Peptide 99]	0.384
GSRLDEVRA [Peptide 64]	0.13
GWVSSSSPT [Peptide 14]	0.044
HFLYLPRDV [Peptide 111]	0.227
HMADMVTWL [Peptide 151]	0.821
HMEGYHYRY [Peptide 198]	0.24
LASNHFLYL [Peptide 109]	0.337

Molecular target: MHC class I allele A*0301 (A3) (Homo sapiens, UniProt P04439)
Assay: iScore multi-parametric analysis, A*0301
Type: binding
Conditions: integrates half-life and ED50
Procedure: as §1, §2, §3, §4, §5

Sequence	iScore (iTopia), A*0301
GLPHIRVFL [Peptide 142]	0.319
HMEGYHYRY [Peptide 198]	0.189
LASNHFLYL [Peptide 109]	0.224

Same assay, conditions: level of binding: >0.5, 0.25-0.5, <0.25

Sequence	iScore, MHC Class I Molecule A*0301
DGRLRLARL [Peptide 7]	0
EHLPSLRQL [Peptide 70]	0
EKMRNRVLL [Peptide 164]	0
ELAALNLSG [Peptide 60]	0
ELILNHIVP [Peptide 89]	0
EVVQGKDRL [Peptide 157]	0
FARRPPLAE [Peptide 56]	0
FEGMVVAAL [Peptide 98, FEGMVVAAL]	0
FLASAVSAQ [Peptide 24]	0
FSSSAPFLA [Peptide 21]	0
GAFARRPPL [Peptide 55]	0
GLPHIRVFL [Peptide 142]	0.319
GLRRLELAS [Peptide 106]	0
GMVVAALLA [Peptide 99]	0
GSRLDEVRA [Peptide 64]	0
GWVSSSSPT [Peptide 14]	0
HFLYLPRDV [Peptide 111]	0
HMADMVTWL [Peptide 151]	0
HMEGYHYRY [Peptide 198]	0.189
LASNHFLYL [Peptide 109]	0.224

Molecular target: MHC class I allele B*0702 (B7) (Homo sapiens, UniProt P01889)
Assay: iScore multi-parametric analysis, B*0702
Conditions: level of binding: >0.5, 0.25-0.5, <0.25
Procedure: as §1
As part of the validation of the iTopia system, a panel of overlapping peptides derived from the CMV pp 65 protein were used and their binding properties for the A*0201 allele analysed. A number of T cell epitopes restricted by HLA A*0201 had already been identified (by more conventional methodologies) by other researchers for this protein. In the iTopia study, it was reported that an iScore of: >0.5 represented “good quality binding”; between 0.25 and 0.5 represented “medium quality binding”; and <0.25 represented “poor quality binding”.
as §4

Sequence	iScore, MHC Class I Molecule B*0702
DGRLRLARL [Peptide 7]	0.038
EHLPSLRQL [Peptide 70]	0
EKMRNRVLL [Peptide 164]	0
ELAALNLSG [Peptide 60]	0
ELILNHIVP [Peptide 89]	0
EVVQGKDRL [Peptide 157]	0
FARRPPLAE [Peptide 56]	0
FEGMVVAAL [Peptide 98, FEGMVVAAL]	0
FLASAVSAQ [Peptide 24]	0
FSSSAPFLA [Peptide 21]	0
GAFARRPPL [Peptide 55]	0.359
GLPHIRVFL [Peptide 142]	0.075
GLRRLELAS [Peptide 106]	0
GMVVAALLA [Peptide 99]	0
GSRLDEVRA [Peptide 64]	0
GWVSSSSPT [Peptide 14]	0
HFLYLPRDV [Peptide 111]	0
HMADMVTWL [Peptide 151]	0
HMEGYHYRY [Peptide 198]	0
LASNHFLYL [Peptide 109]	0
